Reference: US20250059164A1, “IRAK DEGRADERS AND USES THEREOF” (Kymera Therapeutics, Inc., priority 2023, published 2025)

molecular target: T1, IRAK4 (Homo sapiens, UniProt Q9NWZ3); assay: IRAK4 MSD degradation in OCI-LY10; assay type: cell-based; settings: OCI-LY10 cells, 24 hrs, Meso Scale Discovery
T1 construct: endogenous in cells; host or cells: OCI-LY10
T1 sequence (Q9NWZ3 1-460): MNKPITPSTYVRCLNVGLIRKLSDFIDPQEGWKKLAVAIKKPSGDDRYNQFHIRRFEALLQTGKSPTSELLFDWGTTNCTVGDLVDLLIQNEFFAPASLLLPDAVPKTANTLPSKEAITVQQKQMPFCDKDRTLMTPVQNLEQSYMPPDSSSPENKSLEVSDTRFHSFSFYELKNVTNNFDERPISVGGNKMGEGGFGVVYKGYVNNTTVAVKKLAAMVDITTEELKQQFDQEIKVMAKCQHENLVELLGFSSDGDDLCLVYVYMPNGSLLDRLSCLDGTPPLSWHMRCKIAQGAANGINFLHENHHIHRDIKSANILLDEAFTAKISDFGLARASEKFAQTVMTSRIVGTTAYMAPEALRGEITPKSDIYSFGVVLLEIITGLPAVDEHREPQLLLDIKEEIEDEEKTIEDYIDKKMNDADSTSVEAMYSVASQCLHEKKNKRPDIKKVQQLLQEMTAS
Protocol: Degradation of IRAK4 in OCI-LY10 was quantitatively measured using Meso Scale Discovery technology. […] Compounds were then added to the assay plates with a final top concentration of 1 to 10 μM in a 1:3 dilution series with total of 8 doses. The assay plates were then incubated for 4 to 24 hours at 37° C. under 5% CO2. […] To prepare MSD assay plates (Meso Scale Discovery Catalog number L15XA-3), the plates were coated with 2 μg/mL capture antibody (mouse Anti-IRAK4 antibody [2H9], ab119942) in PBS, at 40 μL/well. […] Cell lysates were then added to MSD assay plates and the plates were incubated at room temperature for 1 hour. The plates were then washed 3 times with 150 μL/well TBST buffer and 25 μL/well primary detection antibody (rabbit Anti-IRAK4 antibody [Y279], from Abcam. Catalog number ab32511, 1 μg/mL). The assay plates were then incubated at room temperature for 1 hour, washed 3 times with 150 μL/well TBST buffer and 25 μL/well secondary detection antibody, SULFO-TAG anti-rabbit antibody were added (anti-rabbit antibody from Meso Scale Discovery, Catalog number R32AB-1, 1 μg/mL). The assay plates were then incubated at room temperature for 1 hour, washed 3 times with 150 μL/well TBST buffer, and 150 μL/well MSD reading buffer (Meso Scale Discovery catalog number R92TC-2) was added. The plates were then analyzed by a MSD reader (Meso Scale Discovery, Model Quick Plex SQ 120). The data was then analyzed by software Prism 7.0 from GraphPad and the dose-depended IRAK4 degradation were fit using a three-parameter logistic equation to calculate DC50.
The letter codes for IRAK4 DC50 include: A (<0.01 μM); B (0.01 to <0.1 μM); C (0.1 to 0.2 μM); D (>0.2 μM) and E (not tested).

| DC50 [nM] | Compound |
| --- | --- |
| < 10 | Cn1c(=O)n(C2CCC(=O)NC2=O)c2cccc(N3CC(C4CCN([C@H]5CC[C@H](n6cc(NC(=O)c7cnn8ccc(N9C[C@H]%10C[C@@H]9CO%10)nc78)c(C(F)F)n6)CC5)CC4(F)F)C3)c21 (stereo partly drawn) [I-115] |
| > 200 | Cn1c(NC(=O)c2cccc(C(F)(F)F)n2)cc2cn([C@H]3CC[C@H](CN4CC[C@@H](c5cccc6c5n(C)c(=O)n6C5CCC(=O)NC5=O)C(F)(F)C4)CC3)nc2c1=O (stereo partly drawn) [I-39] |
| < 10 | COc1cc2nn([C@H]3CC[C@H](CN4CC[C@@H](c5cccc6c5n(C)c(=O)n6C5CCC(=O)NC5=O)[C@H](F)C4)CC3)cc2cc1NC(=O)c1cncc(C#N)c1 (single isomer, unassigned) [I-101] |
| < 10 | Cc1nn([C@H]2CCC(=O)NC2=O)c2cccc(N3CC(CN4CCN(C[C@H]5CC[C@H](n6cc(NC(=O)c7cnn8ccc(N9C[C@H]%10C[C@@H]9CO%10)nc78)c(C(F)F)n6)CC5)CC4)C3)c12 [I-88] |
| < 10 | CN(C[C@H]1CC[C@H](n2cc(NC(=O)c3cnn4ccc(N5CCCC5)nc34)c(C(F)F)c2)CC1)[C@@H]1CCN(c2cccc3c2n(C)c(=O)n3C2CCC(=O)NC2=O)C[C@@H]1F (stereo partly drawn) [I-23] |
| 10 to 100 | COc1cc2nn([C@H]3CC[C@H](CN4CCC5(CC4)CCN(c4cccc6c4c(C)nn6C4CCC(=O)NC4=O)CC5)CC3)cc2cc1NC(=O)c1cncc(C)c1 (stereo partly drawn) [I-50] |
| < 10 | CN(C[C@H]1CC[C@H](c2cn3cc(NC(=O)c4cncc(C(F)(F)F)n4)c(C(C)(C)O)cc3n2)CC1)[C@@H]1CCN(c2cccc3c2n(C)c(=O)n3C2CCC(=O)NC2=O)C[C@@H]1F (single isomer, unassigned) [I-344] |
| < 10 | CN(C[C@H]1C[C@@H](n2cc(NC(=O)c3cnn4ccc(N5C[C@H]6C[C@@H]5CO6)nc34)c(C(F)F)n2)C1)[C@@H]1CCN(c2cccc3c2n(C)c(=O)n3C2CCC(=O)NC2=O)C[C@@H]1F (stereo partly drawn) [I-64] |
| 10 to 100 | Cn1c(=O)n(C2CCC(=O)NC2=O)c2cccc([C@H]3CCN(C[C@H]4CC[C@H](c5nc6ccc(NC(=O)c7cccc(C(F)(F)F)n7)cc6s5)CC4)C[C@@H]3F)c21 (stereo partly drawn) [I-97] |
| < 10 | COc1cc2nc([C@H]3CC[C@H](CN(C)[C@H]4CCN(c5cccc6c5n(C)c(=O)n6C5CCC(=O)NC5=O)C[C@@H]4F)CC3)cn2cc1NC(=O)c1cncc(C(F)(F)F)n1 (single isomer, unassigned) [I-318] |
| < 10 | CC(C)Oc1cc2nc([C@H]3CC[C@H](CN4CCC(c5ccc6c(c5)n(C)c(=O)n6C5CCC(=O)NC5=O)CC4)CC3)cn2cc1C(=O)Nc1cccn([C@H]2C[C@H]2F)c1=O (stereo partly drawn) [I-37] |
| 10 to 100 | Cn1c(=O)n(C2CCC(=O)NC2=O)c2cccc(C#CCN3CCN(C[C@H]4CC[C@H](n5cc(NC(=O)c6cnn7ccc(N8C[C@H]9C[C@@H]8CO9)nc67)c(C(F)F)n5)CC4)C[C@@H]3C(F)(F)F)c21 (single isomer, unassigned) [I-303] |
| < 10 | CN(C[C@H]1CC[C@H](n2cc3cc(NC(=O)c4cccc(C(F)(F)F)n4)c(C(C)(C)O)cc3n2)CC1)[C@@H]1CCN(c2cccc3c2n(C)c(=O)n3C2CCC(=O)NC2=O)C[C@H]1F (stereo partly drawn) [I-2] |
| > 200 | COc1cc2nc([C@H]3CC[C@H](CN4CCC5(CCN(c6cccc7c6n(C)c(=O)n7C6CCC(=O)NC6=O)CC5)C(F)(F)C4)CC3)sc2cc1NC(=O)c1cncc(C#N)c1 (stereo partly drawn) [I-150] |
| < 10 | CN(C[C@H]1CC[C@H](c2cn3cc(NC(=O)c4cncc(C(F)(F)F)n4)c(C(C)(C)O)cc3n2)CC1)[C@H]1CCN(c2cccc3c2n(C)c(=O)n3C2CCC(=O)NC2=O)C[C@@H]1F (single isomer, unassigned) [I-335] |
| 10 to 100 | Cc1nn(C2CCC(=O)NC2=O)c2cccc([C@H]3CCN(C[C@H]4CC[C@H](n5cc6cc(NC(=O)c7cccc(C(F)(F)F)n7)ncc6n5)CC4)C[C@@H]3F)c12 (stereo partly drawn) [I-53] |
| < 10 | COc1cc2nn([C@H]3CC[C@H](CN(C)[C@H]4CCN(c5cccc6c5n(C)c(=O)n6C5CCC(=O)NC5=O)C[C@@H]4F)CC3)cc2cc1NC(=O)c1cccc(C(F)(F)F)n1 (stereo partly drawn) [I-80] |
| 10 to 100 | Cn1c(=O)n(C2CCC(=O)NC2=O)c2cccc(N3CC(COC[C@H]4CC[C@H](n5cc6cc(NC(=O)c7cccc(C(F)(F)F)n7)ccc6n5)CC4)C3)c21 (stereo partly drawn) [I-123] |

| DC50 [nM] | Compound |
| --- | --- |
| 10 to 100 | COc1cc2nn([C@H]3CC[C@H](CN4CCC5(CCN(c6cccc7c6c(C)nn7C6CCC(=O)NC6=O)CC5)C(F)(F)C4)CC3)cc2cc1NC(=O)c1cncc(C#N)c1 (stereo partly drawn) [I-131] |
| 10 to 100 | CN(C[C@H]1CC[C@H](n2cc(NC(=O)c3cnn4cccnc34)c(C(F)F)n2)CC1)[C@H]1CCN(c2cccc3c2n(C)c(=O)n3C2CCC(=O)NC2=O)CC1(F)F (stereo partly drawn) [I-203] |
| < 10 | CN(C[C@H]1CC[C@H](n2cc3cc(NC(=O)c4cccc(C(F)(F)F)n4)c(C(C)(C)O)cc3n2)CC1)[C@H]1CCN(c2cccc3c2n(C)c(=O)n3C2CCC(=O)NC2=O)C[C@H]1F (stereo partly drawn) [I-70] |
| < 10 | Cn1c(=O)n([C@@H]2CCC(=O)NC2=O)c2cccc([C@@H]3CCN(C[C@H]4CC[C@H](c5nc6cc(C(C)(C)O)c(NC(=O)c7cncc(C#N)c7)cc6s5)CC4)C[C@H]3F)c21 (single isomer, unassigned) [I-237] |
| > 200 | COc1cc2nc([C@H]3CC[C@H](CN4CC[C@H](c5cccc6c5n(C)c(=O)n6C5CCC(=O)NC5=O)[C@@H](F)C4)CC3)oc2cc1NC(=O)c1cccc(C(F)(F)F)n1 (single isomer, unassigned) [I-89] |
| 10 to 100 | O=C1CC[C@@H](c2ccc(N3CC(N4CCN([C@H]5CC[C@H](n6cc(NC(=O)c7cnn8ccc(N9C[C@H]%10C[C@@H]9CO%10)nc78)c(C(F)F)n6)CC5)CC4)C3)cc2Cl)C(=O)N1 [I-125] |
| < 10 | Cn1c(=O)n(C2CCC(=O)NC2=O)c2cccc([C@H]3CCN(C[C@H]4CC[C@H](n5cc6cc(NC(=O)c7cccc(C(F)(F)F)n7)c(C(C)(C)O)cc6n5)CC4)C[C@@H]3F)c21 (stereo partly drawn) [I-63] |
| > 200 | N#Cc1cncc(C(=O)Nc2cc3cn([C@H]4CC[C@H](CN5CCN(CC(=O)Nc6cccc7c(C8CCC(=O)NC8=O)noc67)CC5)CC4)nc3cn2)c1 (stereo partly drawn) [I-84] |
| < 10 | COc1cc2nn([C@H]3CC[C@H](CN(C)[C@@H]4CCN(c5cccc6c5n(C)c(=O)n6C5CCC(=O)NC5=O)C[C@@H]4F)CC3)cc2cc1NC(=O)c1cccc(C(F)(F)F)n1 (stereo partly drawn) [I-81] |
| 100 to 200 | CN(c1cccc(N2CCN(C[C@H]3CC[C@H](n4cc5cc(NC(=O)c6cccc(C(F)(F)F)n6)ncc5n4)CC3)CC2)c1)C1CCC(=O)NC1=O (stereo partly drawn) [I-62] |
| < 10 | CN(C[C@H]1CC[C@H](c2cn3cc(NC(=O)c4cncc(C(F)(F)F)n4)c(C(C)(C)O)cc3n2)CC1)[C@@H]1CCN(c2cccc3c2n(C)c(=O)n3C2CCC(=O)NC2=O)C[C@H]1F (single isomer, unassigned) [I-334] |
| < 10 | C[C@H]1CN(c2ccn3ncc(C(=O)Nc4cn([C@H]5CC[C@H](CN(C)[C@H]6CCN(c7cccc8c7n(C)c(=O)n8C7CCC(=O)NC7=O)C[C@H]6F)CC5)nc4C(F)F)c3n2)CCO1 (stereo partly drawn) [I-24] |
| 10 to 100 | Cn1c(=O)n(C2CCC(=O)NC2=O)c2cccc([C@H]3CCN(C[C@H]4CC[C@H](c5nc6cc(C(C)(C)O)c(NC(=O)c7cncc(C(F)(F)F)n7)cc6o5)CC4)CC3(F)F)c21 (single isomer, unassigned) [I-328] |
| < 10 | Cn1c(=O)n(C2CCC(=O)NC2=O)c2cccc([C@@H]3CCN(C[C@H]4CC[C@H](n5cc6cc(NC(=O)c7cccc(C(F)(F)F)n7)c(C(C)(C)O)cc6n5)CC4)C[C@H]3F)c21 (stereo partly drawn) [I-7] |
| < 10 | COc1cc2nc([C@H]3CC[C@H](CN(C)[C@@H]4CCN(c5cccc6c5n(C)c(=O)n6C5CCC(=O)NC5=O)C[C@@H]4F)CC3)sc2cc1NC(=O)c1cccc(C(F)(F)F)n1 (single isomer, unassigned) [I-99] |
| < 10 | CN(C[C@H]1CC[C@H](n2cc3cc(NC(=O)c4cccc(C(F)(F)F)n4)ccc3n2)CC1)[C@H]1CCN(c2cccc3c2n(C)c(=O)n3C2CCC(=O)NC2=O)C[C@H]1F (stereo partly drawn) [I-31] |
| < 10 | Cn1c(=O)n([C@@H]2CCC(=O)NC2=O)c2cccc([C@@H]3CCN(C[C@H]4CC[C@H](n5cc6cc(NC(=O)c7cncc(C(F)(F)F)n7)ccc6n5)CC4)CC3(F)F)c21 (single isomer, unassigned) [I-381] |
| < 10 | COc1ccc2c(c1N1CC3(CCN(C[C@H]4CC[C@H](n5cc6cc(NC(=O)c7cncc(C#N)c7)c(C(C)(C)O)cc6n5)CC4)CC3(F)F)C1)n(C)c(=O)n2[C@@H]1CCC(=O)NC1=O (single isomer, unassigned) [I-235] |
